The record followed here is patent US20200138023A1, “MICROBICIDAL COMPOSITION” (DDP Specialty Electronic Materials US 8, LLC, priority 2017, published 2020).

In experiment [1] the test system is Candida albicans ATCC 10231. As to the kind of experiment: Synergy test, high resolution MIC microtiter plate assay, Potato Dextrose Broth. The experiment is classed as cell-based. As to conditions: C. albicans ATCC 10231, PDB, contact time 48 hours. The text has this:
(§1) One measure of synergism is the industrially accepted method described by Kull, F. C.; Eisman, P. C.; Sylwestrowicz, H. D. and Mayer, R. L., in Applied Microbiology 9:538-541 (1961), using the ratio determined by the formula:
(§2) Qa/QA+Qb/QB=Synergy Index (“SI”)
(§3) wherein: • QA=concentration of compound A (first component) in ppm, acting alone, which produced an end point (MIC of Compound A). • Qa=concentration of compound A in ppm, in the mixture, which produced an end point. • QB=concentration of compound B (second component) in ppm, acting alone, which produced an end point (MIC of Compound B). • Qb=concentration of compound B in ppm, in the mixture, which produced an end point.
(§4) When the sum of Qa/QA and Qb/QB is greater than one, antagonism is indicated. […] The lower the SI, the greater is the synergy shown by that particular mixture. The minimum inhibitory concentration (MIC) of a microbicide is the lowest concentration tested under a specific set of conditions that prevents the growth of the tested microorganisms.
(§5) Synergy tests were conducted using standard microtiter plate assays with media designed for optimal growth of the test microorganism. Potato Dextrose Broth (PDB medium) was used for testing yeast and mold. In this method, a wide range of combinations of microbicides and other personal care raw materials was tested by conducting high resolution MIC assays in the presence of lactic acid. High resolution MICs were determined by adding varying amounts of microbicide to one column of a microtitre plate and doing subsequent […] dilutions using an automated liquid handling system to obtain a series of closely spaced endpoints.
(§6) The synergy of the combinations of the present invention was determined against a yeast, Candida albicans (C. albicans—ATCC 10231) and a mold, Aspergillus brasiliensis (A. brasiliensis—ATCC 16404). The yeast and mold were used at concentrations of 5×10^5 cells per mL. These microorganisms are representative of natural contaminants in many consumer and industrial applications.
(§7) In this test, First Component (A) was lactic acid and the Second Component (B) was caprylic acid.
(§8) First Component (A)=Lactic acid (LA) Second Component (B)=Caprylic acid (CA) • Table 1: Aspergillus brasiliensis • ATCC 16404 • Potato Dextrose Broth • Contact Time=7 days • Table 2: Candida albicans • ATCC 10231 • Potato Dextrose Broth • Contact Time=48 hours

In experiment [2] the test system is Aspergillus brasiliensis ATCC 16404. The description is as above. As to conditions: A. brasiliensis ATCC 16404, PDB, contact time 7 days; for SI (Synergy Index, Qa/QA+Qb/QB): SI less than one = synergy; for MIC: Aspergillus brasiliensis, ATCC16404, 168 h, 25° C. The experiment is classed as cell-based.
Source text: as §1, §2, §3, §4, §5, §6, §7, §8

The term MIC denotes the lowest concentration found to suppress growth.

The structures appear in SMILES notation. Read-outs that look alike come from different tables or passages of the source.

With `CCCCCCCC(=O)O` [Caprylic Acid, octanoic acid], the “SI (Synergy Index, Qa/QA+Qb/QB)” value in experiment [1] (SI less than one = synergy) and in experiment [2] was 1.00 each time. Moreover, the MIC in experiment [1] (Candida albicans, ATCC10231, caprylic acid alone, 25° C., read-out: Caprylic Acid, ppm: MIC for caprylic acid alone (QB)) was found to be 60 µg/mL; in experiment [2] (caprylic acid alone, read-out: Caprylic Acid, ppm: MIC for caprylic acid alone (QB)), 10000 µg/mL.

Consider `CC(O)C(=O)O` (stereo not drawn) [Lactic Acid, 2-hydroxypropanoic acid], for which the “SI (Synergy Index, Qa/QA+Qb/QB)” value in experiment [2] is on record as 1.00. The minimal inhibitory concentration (MIC) in experiment [2] (lactic acid alone, read-out: Lactic Acid, ppm: MIC for lactic acid alone (QA)) was 30000 µg/mL.
